Data from ChEMBL document CHEMBL2029208 (Bioorg Med Chem, 2012).
pIC50: −log10 of the molar value. Values after ≈ are worked out from the molar mass of the structure shown.

The compounds below were run against T1, Bifunctional epoxide hydrolase 2 (Homo sapiens, UniProt P34913) (assay: not given). Details: not given.
T1 sequence (P34913 whole entry): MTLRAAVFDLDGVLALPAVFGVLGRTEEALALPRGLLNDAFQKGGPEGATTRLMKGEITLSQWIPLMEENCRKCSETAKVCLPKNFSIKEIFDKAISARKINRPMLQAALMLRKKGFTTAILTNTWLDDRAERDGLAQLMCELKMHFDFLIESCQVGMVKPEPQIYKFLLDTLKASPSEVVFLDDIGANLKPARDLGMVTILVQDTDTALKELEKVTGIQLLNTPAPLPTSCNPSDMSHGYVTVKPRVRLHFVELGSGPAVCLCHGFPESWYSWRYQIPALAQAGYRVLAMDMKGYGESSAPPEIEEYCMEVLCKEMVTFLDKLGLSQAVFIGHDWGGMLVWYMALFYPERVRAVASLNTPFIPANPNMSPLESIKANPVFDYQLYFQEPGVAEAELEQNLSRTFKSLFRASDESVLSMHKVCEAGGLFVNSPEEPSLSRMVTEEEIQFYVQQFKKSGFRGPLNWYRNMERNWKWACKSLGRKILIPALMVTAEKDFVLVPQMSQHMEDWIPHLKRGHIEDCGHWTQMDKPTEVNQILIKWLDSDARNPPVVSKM
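For pIC50 in this document: recombinant enzyme with CMNPC substrate, fluorescence readout of 6-methoxy-2-naphthaldehyde formed over a 10 min reaction.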

Row | SMILES | pIC50
1 | O=C(Nc1cccc(C(=O)NCC2CN(Cc3ccccc3)CCO2)c1)NC12CC3CC(CC(C3)C1)C2 (configuration not stated) | 7.87
2 | O=C(Nc1cccc(Oc2ccccc2)c1)NC12CC3CC(CC(C3)C1)C2 | 9.05
3 | O=C(Nc1cccc(OC(F)(F)F)c1)NC12CC3CC(CC(C3)C1)C2 | 8.51
4 | CCOC(=O)COc1ccc(NC(=O)NC23CC4CC(CC(C4)C2)C3)cc1 | 9.10
5 | O=C(Nc1cccc(C(F)(F)F)c1)NC1CCCCC1 | 8.06
6 | CSc1ccc(NC(=O)NC23CC4CC(CC(C4)C2)C3)cc1 | 8.80
7 | O=C(CCCCCCOCc1ccccc1)NC12CC3CC(CC(C3)C1)C2 | 7.18
8 | O=C(NN1CCOCC1)NC12CC3CC(CC(C3)C1)C2 | 4.89
9 | O=C(NCCCc1ccccc1)NC12CC3CC(CC(C3)C1)C2 | 9.00

What follows are compounds tested on Mycobacterium tuberculosis (assay: microbe, parasite or virus in culture). Details: H37Ra.
Format: functional

Row | SMILES | MIC
10 | CC(C)Oc1cc(F)c(CO[C@H]2CC[C@H](NC(=O)NC34CC5CC(CC(C5)C3)C4)CC2)c(F)c1 | 11.9 µg/mL (≈ 25 µM)
11 | O=C(Nc1cccc(C(=O)NCC2CN(Cc3ccccc3)CCO2)c1)NC12CC3CC(CC(C3)C1)C2 (configuration not stated) | > 101 µg/mL
12 | O=C(Nc1cccc(Oc2ccccc2)c1)NC12CC3CC(CC(C3)C1)C2 | 2.27 µg/mL (≈ 6.26 µM)
13 | CCc1ccc(OCCOCCOCCCCCNC(=O)NC23CC4CC(CC(C4)C2)C3)cc1 | 24 µg/mL (≈ 50.8 µM)
14 | O=C(Nc1cccc(OC(F)(F)F)c1)NC12CC3CC(CC(C3)C1)C2 | 0.2 µg/mL (≈ 0.564 µM)
15 | O=C(Nc1ccc(OC(=O)c2ccccc2)cc1)NC12CC3CC(CC(C3)C1)C2 | 39 µg/mL (≈ 99.9 µM)
16 | O=C(NC12CC3CC(CC(C3)C1)C2)N[C@H]1CC[C@H](Oc2ccc(F)cc2)CC1 | > 39 µg/mL
17 | O=C(Nc1ccc(Oc2ccc(F)cc2)cc1)NC12CC3CC(CC(C3)C1)C2 | 0.6 µg/mL (≈ 1.58 µM)
18 | COc1ccc(NC(=O)NC23CC4CC(CC(C4)C2)C3)cc1O | 32 µg/mL (≈ 101 µM)
19 | CO[C@H]1CC[C@@H](NC(=O)NC23CC4CC(CC(C4)C2)C3)CC1 | > 61 µg/mL
20 | CCOC(=O)COc1ccc(NC(=O)NC23CC4CC(CC(C4)C2)C3)cc1 | 4.7 µg/mL (≈ 12.6 µM)
21 | O=C(Nc1cccc(C(=O)N2CCC(N3CCOCC3)CC2)c1)NC12CC3CC(CC(C3)C1)C2 | > 93 µg/mL
22 | CC(=O)Oc1ccc(NC(=O)NC23CC4CC(CC(C4)C2)C3)cc1 | 66 µg/mL (≈ 201 µM)
23 | CCOC(=O)C(C)Oc1ccc(NC(=O)NC23CC4CC(CC(C4)C2)C3)cc1 (configuration not stated) | 19 µg/mL (≈ 49.2 µM)
24 | O=C(Nc1cccc(C(F)(F)F)c1)NC1CCCCC1 | 1.79 µg/mL (≈ 6.25 µM)
25 | CC(C)c1ccc(NC(=O)NC2CCCCC2)cc1 | 3.25 µg/mL (≈ 12.5 µM)
26 | CSc1ccc(NC(=O)NC23CC4CC(CC(C4)C2)C3)cc1 | 1.5 µg/mL (≈ 4.74 µM)
27 | O=C(CCCCCCOCc1ccccc1)NC12CC3CC(CC(C3)C1)C2 | 9.24 µg/mL (≈ 25 µM)
28 | O=C(NN1CCOCC1)NC12CC3CC(CC(C3)C1)C2 | > 56 µg/mL
29 | O=C(NCCCc1ccccc1)NC12CC3CC(CC(C3)C1)C2 | 0.7 µg/mL (≈ 2.24 µM)
30 | O=C(Nc1cccc(OCCCN2CCOCC2)c1)NC12CC3CC(CC(C3)C1)C2 | 32 µg/mL (≈ 77.4 µM)
31 | O=C(NCCCCOc1ccc(F)cc1)NC12CC3CC(CC(C3)C1)C2 | 2.25 µg/mL (≈ 6.24 µM)
32 | COC(=O)c1cc(NC(=O)NC23CC4CC(CC(C4)C2)C3)ccc1O | 1.1 µg/mL (≈ 3.19 µM)
33 | O=C(NC12CC3CC(CC(C3)C1)C2)N[C@H]1CC[C@@H](OCc2c(F)cccc2F)CC1 | 42 µg/mL (≈ 100 µM)
34 | CC(=O)c1ccccc1NC(=O)NC12CC3CC(CC(C3)C1)C2 | > 3.1 µg/mL

Row | SMILES | MIC
35 | COC(=O)c1ccc(NC(=O)NC23CC4CC(CC(C4)C2)C3)cc1 | 2 µg/mL (≈ 6.09 µM)
36 | O=C(NC12CC3CC(CC(C3)C1)C2)N[C@H]1CC[C@@H](Oc2ccc(F)cc2)CC1 | > 20 µg/mL
37 | COc1ccc(O[C@H]2CC[C@H](NC(=O)NC34CC5CC(CC(C5)C3)C4)CC2)cc1 | > 80 µg/mL
38 | C[C@H](NC(=O)Cc1ccc(NC(=O)NC23CC4CC(CC(C4)C2)C3)cc1)C(=O)N[C@@H](Cc1c[nH]c2ccccc12)C(=O)O | 66 µg/mL (≈ 113 µM)
39 | CN1CCN(CCCCOc2cccc(NC(=O)NC34CC5CC(CC(C5)C3)C4)c2)CC1 | 44 µg/mL (≈ 99.9 µM)
40 | O=C(Nc1ccc(OC2CCOC2=O)cc1)NC12CC3CC(CC(C3)C1)C2 (configuration not stated) | > 37 µg/mL
41 | O=C(Nc1cccc(C(=O)OCc2ccccc2)c1)NC12CC3CC(CC(C3)C1)C2 | 0.3 µg/mL (≈ 0.742 µM)
42 | CC(C)Oc1cc(F)c(CO[C@H]2CC[C@@H](NC(=O)NC34CC5CC(CC(C5)C3)C4)CC2)c(F)c1 | 6.7 µg/mL (≈ 14.1 µM)
43 | O=C(Nc1ccc(OCCCCN2CCOCC2)cc1)NC12CC3CC(CC(C3)C1)C2 | 21 µg/mL (≈ 49.1 µM)
44 | O=C(Nc1ccccc1OCCCN1CCOCC1)NC12CC3CC(CC(C3)C1)C2 | 21 µg/mL (≈ 50.8 µM)
45 | CCC(=O)Oc1cccc(NC(=O)NC23CC4CC(CC(C4)C2)C3)c1 | 17 µg/mL (≈ 49.6 µM)
46 | COc1ccccc1NC(=O)NC12CC3CC(CC(C3)C1)C2 | 30 µg/mL (≈ 99.9 µM)
47 | CCOCCOCCOCCCCCNC(=O)NC12CC3CC(CC(C3)C1)C2 | > 79 µg/mL
48 | O=C(Nc1ccc(-n2ccnc2)cc1)NC12CC3CC(CC(C3)C1)C2 | > 44 µg/mL
49 | CCCCOCCCCCNC(=O)NC12CC3CC(CC(C3)C1)C2 | 2.1 µg/mL (≈ 6.24 µM)
50 | O=C(Nc1ccccc1)NC12CC3CC(CC(C3)C1)C2 | 14 µg/mL (≈ 51.8 µM)
51 | CCOCCOCCOc1ccc(NC(=O)NC23CC4CC(CC(C4)C2)C3)cc1 | 10 µg/mL (≈ 24.8 µM)
52 | O=C(O)CCCc1ccc(NC(=O)NC23CC4CC(CC(C4)C2)C3)cc1 | 36 µg/mL (≈ 101 µM)
53 | CCCCOC(=O)CCCCCCCCCCCNC(=O)NC12CC3CC(CC(C3)C1)C2 | 5.61 µg/mL (≈ 12.5 µM)
54 | O=C(NC12CC3CC(CC(C3)C1)C2)N[C@H]1CC[C@H](O)CC1 | > 58 µg/mL
55 | CN1CCN(CCCOc2ccc(NC(=O)NC34CC5CC(CC(C5)C3)C4)cc2)CC1 | 62 µg/mL (≈ 145 µM)
56 | COc1ccc(O[C@H]2CC[C@@H](NC(=O)NC34CC5CC(CC(C5)C3)C4)CC2)cc1 | > 80 µg/mL
57 | O=C(NC12CC3CC(CC(C3)C1)C2)N[C@H]1CC[C@H](OCc2ccc(Br)cc2)CC1 | > 92 µg/mL
58 | O=C(Nc1cccc(C(=O)N2CCOCC2)c1)NC12CC3CC(CC(C3)C1)C2 | > 77 µg/mL
59 | CCC(=O)Oc1ccc(NC(=O)NC23CC4CC(CC(C4)C2)C3)cc1 | > 68 µg/mL

Row | SMILES | MIC
60 | O=C(NC12CC3CC(CC(C3)C1)C2)N[C@H]1CC[C@H](OCc2ccccc2)CC1 | > 77 µg/mL
61 | COC(=O)c1cccc(NC(=O)NC23CC4CC(CC(C4)C2)C3)c1 | 1.2 µg/mL (≈ 3.65 µM)
62 | CC(=O)Nc1ccc(NC(=O)NC23CC4CC(CC(C4)C2)C3)cc1 | 65 µg/mL (≈ 199 µM)
63 | COc1ccc(NC(=O)NC23CC4CC(CC(C4)C2)C3)cc1 | 1.88 µg/mL (≈ 6.26 µM)
64 | CO[C@H]1CC[C@H](NC(=O)NC23CC4CC(CC(C4)C2)C3)CC1 | > 61 µg/mL
65 | O=C(NCC#CCOc1ccc(F)cc1)NC12CC3CC(CC(C3)C1)C2 | 0.7 µg/mL (≈ 1.96 µM)
66 | O=C(NC12CC3CC(CC(C3)C1)C2)N[C@H]1CC[C@H](OCC2CCCCC2)CC1 | > 78 µg/mL
67 | O=C(NC12CC3CC(CC(C3)C1)C2)N[C@H]1CC[C@@H](Oc2cc(F)cc(F)c2)CC1 | 10 µg/mL (≈ 24.7 µM)
68 | O=C(Nc1cccc(Oc2ccc(F)cc2)c1)NC12CC3CC(CC(C3)C1)C2 | 2.5 µg/mL (≈ 6.57 µM)
69 | O=C(NC12CC3CC(CC(C3)C1)C2)N[C@H]1CC[C@H](OCCCN2CCOCC2)CC1 | > 42 µg/mL
70 | CCCCCCCOCCNC(=O)NC12CC3CC(CC(C3)C1)C2 | 2.1 µg/mL (≈ 6.24 µM)
71 | O=C(Nc1ccc(OCCN2CCOCC2)cc1)NC12CC3CC(CC(C3)C1)C2 | > 30 µg/mL
72 | CC(C)(C)OC(=O)N1CCN(CCCOc2ccc(NC(=O)NC34CC5CC(CC(C5)C3)C4)cc2)CC1 | 6.21 µg/mL (≈ 12.1 µM)
73 | O=C(Nc1ccc(C(=O)O)cc1)N[C@H]1CC[C@@H](Oc2ccc(F)cc2)CC1 | 4.65 µg/mL (≈ 12.5 µM)
74 | CCOCCOCCOc1cccc(NC(=O)NC23CC4CC(CC(C4)C2)C3)c1 | 2.52 µg/mL (≈ 6.26 µM)
75 | O=C(NC12CC3CC(CC(C3)C1)C2)N[C@H]1CC[C@H](Oc2ccc(Br)cc2)CC1 | > 89 µg/mL
76 | O=C(Nc1ccc(O)cc1)NC12CC3CC(CC(C3)C1)C2 | 57 µg/mL (≈ 199 µM)
77 | O=C(NC12CC3CC(CC(C3)C1)C2)N[C@H]1CC[C@H](Oc2cccc(F)c2)CC1 | 14 µg/mL (≈ 36.2 µM)
78 | O=C(Nc1ccccc1OCCCCN1CCOCC1)NC12CC3CC(CC(C3)C1)C2 | 21 µg/mL (≈ 49.1 µM)
79 | O=C(Nc1cccc(C(=O)NCCN2CCOCC2)c1)NC12CC3CC(CC(C3)C1)C2 | > 30 µg/mL
80 | O=C(NC12CC3CC(CC(C3)C1)C2)N[C@H]1CC[C@H](Oc2cc(F)cc(F)c2)CC1 | > 41 µg/mL
81 | O=C(Nc1cccc(OCCCCN2CCOCC2)c1)NC12CC3CC(CC(C3)C1)C2 | 21 µg/mL (≈ 49.1 µM)
82 | O=C(Nc1cccc(OC(=O)c2ccccc2)c1)NC12CC3CC(CC(C3)C1)C2 | 2.4 µg/mL (≈ 6.15 µM)
